Assays:
Assay type in all cases: physicochemical
[1] = UV absorbance spectrum in solution (λmax, λcrit, extinction coefficients); conditions: for E (1%, 1 cm): mass extinction coefficient; for ε: molar extinction coefficient, in M-1 cm-1 (unit assumed); for λcrit: critical wavelength
Description: (§1) FIG. 1 is a graphical representation of the absorbance of compounds 142 and 143 measured in a 10 mm cuvette as 0.001% solutions in methanol (142 is the uppermost trace at peak point of approximately 330 nm); The synthesised benzoyl functionalised compounds and their spectroscopic properties can be seen in table 2 wherein; breakthrough denotes the value in nm where transmittance increases beyond 1%; steepness refers to the distance in nm over which transmittance increases from 1 to 80% (a higher value indicates a less steep transition from absorbing to transmitting and is generally unfavourable); and ^a denotes an average of multiple measurements. As a general comment, it can be noted that the benzoyl substituted compounds gave similar absorbance maxima to the corresponding trifluoroacetyl derivative.

[2] = Photostability protocol: thin film irradiated with xenon arc lamp; conditions: 1 hour xenon arc lamp
Procedure: 1 mL of a 3% solution of the test compound (30 mg of test compound in 1 mL solvent) was prepared in a solvent mix made up of 50% EtOH and 25% capric/caprylic triglyceride and 25% C12-C15 alkyl benzoate. 50 μL of this solution (containing 1.5 mg of test compound) was added carefully to the centre of a glass microscope slide and the volatile components left to evaporate in the dark for at least 3 hours to give a liquid film. The prepared films were then exposed for 1 hour to an Eimac 150 W xenon arc lamp filtered through Pyrex (15 Amp supply current, samples 19 cm from the lamp) previously allowed to warm up for 15 minutes prior to sample exposure. The irradiation was performed in a fume cupboard where the air flow was sufficient to keep sample T<30° C. One hour's exposure represented a calculated radiation dose (using meter) of approximately 100 MED.
In order to calculate the photostability of the test compounds, the exposed slides were placed in a beaker and rinsed with 2×5 mL EtOH, 1×5 mL MeOH. The combined washings were then added to a 100 mL volumetric flask and made up to 100 mL total volume with methanol. The UV absorbance was then measured in a 10 mm cuvette. The percent stability is measured as the ratio of absorbance at λmax for the irradiated sample compared to the unirradiated sample.
The thin films are a good surrogate for testing the stability of a candidate in, for example, a sunscreen formulation as they use cosmetic emollients as solvent and are formed at cosmetically relevant concentrations.

[3] = % transmission spectrum of 0.1% solution (breakthrough, steepness); conditions: for Steepness: distance in nm over which transmittance increases from 1 to 80%; for Breakthrough (1% T at 0.1%): value in nm where transmittance increases beyond 1%, 0.1% solution
Description: FIG. 2 is a is a graphical representation of the % transmission of compounds 142 and 143 measured in a 2 mm cuvette as 0.1% solutions in methanol (142 is the left most trace);
as §1, with “The” for “FIG. 1 is a graphical representation of the absorbance of compounds 142 and 143 measured in a 10 mm cuvette as 0.001% solutions in methanol (142 is the uppermost trace at peak point of approximately 330 nm); The”

λmax [1]	E (1%, 1 cm) [1]	ε [1]	Photostability (% remains) [2] [%]	λcrit [1] [nm]	Photostability ([2]; ratio of absorbance at λmax irradiated vs unirradiated, ^a = average of multiple measurements) [%]	Steepness [3] [nm]	Breakthrough (1% T at 0.1%) [3] [nm]	SMILES
294 nm	690	14973	6	–	–	–	–	CCN(/C=C(\C(C)=O)c1ccccc1)CC [Compound 149]
291 nm	1169	22598	18	–	–	–	–	CCOC(=O)/C(=C\N(C)C)c1ccccc1 [Compound 171]
332 nm	759	23153	90	367	90	–	–	CN(/C=C(\C(=O)C(F)(F)F)c1ccccc1)c1ccccc1 [Compound 183]
381 nm	1004	34855	91	393	–	–	–	COc1ccc2c(c1)CCN2/C=C(\C(=O)C(F)(F)F)c1ccccc1 [Compound 200]
319 (broad) nm	611	22532	31	356	–	–	–	CCN(/C=C(\C(=O)c1c(F)c(F)c(F)c(F)c1F)c1ccccc1)CC [Compound 203]
363 nm	358	12357	70	387	–	–	–	O=C(/C(=C(/c1ccccc1)N1CCCC1)c1ccccc1)C(F)(F)F [Compound 204]
323 nm	690	37546	97	366	–	–	–	O=C(/C(=C\N1CCCN(/C=C(\C(=O)C(F)(F)F)c2ccccc2)c2ccccc21)c1ccccc1)C(F)(F)F [Compound 224]
360 nm	327	15775	–	387	–	48	418	CN(C)S(=O)(=O)c1ccc(C(=O)/C(=C/N(c2ccccc2)c2ccccc2)c2ccccc2)cc1 [Compound 265]
368 nm	552	23870	–	390	–	46	429	CN(C)S(=O)(=O)c1ccc(C(=O)/C(=C/N2CCc3ccccc32)c2ccccc2)cc1 [Compound 266]
376 nm	703	30040	–	392	–	34	419	COC(=O)c1ccc2c(c1)CCN2/C=C(/C(=O)C(=O)Oc1ccccc1)c1ccccc1 [Compound 281]
371 nm	1150	45689	–	389	–	30	423	COC(=O)c1ccc2c(c1)CCN2/C=C(/C(=O)c1ccc(C)cc1)c1ccccc1 [Compound 284]
370 nm	1205	47867	–	389	–	46	423	COC(=O)c1ccc2c(c1)CCN2/C=C(/C(=O)c1cccc(C)c1)c1ccccc1 [Compound 286]
356 nm	1360	57009	–	370	–	28	383	COC(=O)c1ccc2c(c1)CCN2/C=C(/C(=O)OC1(C)CCCCC1)c1ccccc1 [Compound 288]
344 nm	492	17462	–	373	–	28	383	CC(C)(C)C(=O)/C(=C/N(c1ccccc1)c1ccccc1)c1ccccc1 [Compound 294]

SMILES	λmax [1]	E (1%, 1 cm) [1]	ε [1]	Photostability (% remains) [2] [%]	λcrit [1] [nm]	Photostability ([2]; ratio of absorbance at λmax irradiated vs unirradiated, ^a = average of multiple measurements) [%]	Steepness [3] [nm]	Breakthrough (1% T at 0.1%) [3] [nm]
CCN(/C=C(\C(=O)C(F)(F)C(F)(F)C(F)(F)F)c1ccccc1)c1ccccc1 [Compound 191]	332 nm	452	18948	95	370	–	–	–

From patent US11512042B2, “Enamine compounds for absorbance of electromagnetic energy” (Commonwealth Scientific and Industrial Research Organisation, priority 2015, dated 2022)
